# Data: article PMC10517971, “An inverse agonist of orphan receptor GPR61 acts by a G protein-competitive allosteric mechanism” (Nature Communications, 2023)
# Where “and” joins values, the source holds several entries; their conditions need not be identical. Equal values may be shown once. Read-outs that look alike come from different tables or passages of the source.
# Tests used:
# human GPR61 V288A = molecular target: T1, human GPR61 V288A (Homo sapiens, UniProt Q9BZJ8, V288A); experiment: Functional cAMP assay (HTRF), transiently transfected CHO-K1 cells, GPR61 V288A mutant; assay type: cell-based; details: for IC50: Fig. 3e table
# T1 construct: expressed in transfected cells; host or cells: CHO-K1, transient (Fugene6)
# T1 sequence (Q9BZJ8 whole entry V288A): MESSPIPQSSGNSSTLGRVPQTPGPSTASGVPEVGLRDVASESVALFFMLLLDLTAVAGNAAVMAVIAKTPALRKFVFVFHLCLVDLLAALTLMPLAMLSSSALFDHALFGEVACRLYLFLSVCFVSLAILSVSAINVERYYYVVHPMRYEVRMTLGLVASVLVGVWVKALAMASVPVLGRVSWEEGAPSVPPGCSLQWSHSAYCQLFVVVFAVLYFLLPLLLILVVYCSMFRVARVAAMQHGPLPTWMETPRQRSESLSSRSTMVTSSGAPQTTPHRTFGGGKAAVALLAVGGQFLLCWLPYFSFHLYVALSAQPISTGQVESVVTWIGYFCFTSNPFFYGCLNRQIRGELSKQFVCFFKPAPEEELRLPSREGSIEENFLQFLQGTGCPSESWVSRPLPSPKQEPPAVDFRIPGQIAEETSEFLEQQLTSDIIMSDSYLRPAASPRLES
# Excerpt: (§1) The human GPR61 (reference sequence NM_031936.4) cDNA was synthesized and subcloned into pcDNA5/FRT/TO (Thermo Fisher, Pittsburgh, PA). The pcDNA5/FRT/TO/ human GPR61 plasmid was then transfected into the Flp-In™-CHO Cell Line (Thermo Fisher, Pittsburgh, PA) and a doxycycline-inducible clonal cell line was selected (CHO TREx hGPR61 WT). Sequences encoding untagged and HiBit/hemagglutinin (HA)-tagged versions of the wild-type human GPR61 were synthesized and cloned into pcDNA3.1. The HiBit ([…]) and HA ([…]) tags were sequentially included after the N-terminal initiator methionine. Four single amino acid substitutions (N137A, R140A, V288A, N345A) were then introduced in the untagged and tagged human GPR61 constructs using site-specific mutagenesis. The nucleotide sequences of all receptor constructs were confirmed by automated DNA sequencing.
# (§2) Parental CHO-K1 cells were maintained at 37 °C in a humidified environment (5% CO2) and grown in Dulbecco’s Modified Eagle Medium (DMEM) F-12 media (Gibco, 11320033) supplemented with 10% FBS, 1% Glutamax (Gibco, 35050061) and 100units/ml penicillin and streptomycin (Gibco, 15140122. Cells were dissociated using a cell dissociation solution (Gibco, 13151-014), counted, and resuspended in complete culture media without antibiotics. Cells were then transiently transfected using Fugene6 (Promega) in a 384-well plate format (Corning, 3570). For each well, 7500 cells were transfected with 5 ng of receptor plasmid, 20 ng of carrier DNA (Promega, PAE4881) and 0.075 μl Fugene6 in a final volume of 25 μl. Fugene6 and DNA were separately diluted in Optimem media (Gibco, 31985070) (1.25 μl final volume each). Fugene6 and DNA solutions were then combined and incubated for 15 min at room temperature. The cell containing solution (22.5 μl) was then added and transfection reactions were mixed and transferred to the assay plate. Following 24 h incubation at 37 °C, wells were rinsed once and 25 μl of HiBit assay buffer (Phenol-red free DMEM F-12 media containing 2% FBS) was added per well. Surface and total receptor expression was measured separately by adding 25 μl per well of the extracellular (Promega, PRN2421) and lytic (Promega, PRN3040) assay solutions, respectively. Plates were incubated for 10 min at room temperature on a shaker and luciferase activity was measured using an EnVision plate reader (Perkin Elmer, Chicago, IL). Expression was normalized as percent of the wild-type receptor signal. Statistical comparisons of expression levels observed with WT versus GPR61 mutants were made by one-way analysis of variance with Dunnett’s post hoc test.
# A homogeneous Time-Resolved Fluorescence (HTRF) assay (Perkin Elmer, Dynamic2 kit #) was used to assess receptor basal and inverse agonist activity at human GPR61, GPR62, and GPR101. […]
# human GPR61 = molecular target: T2, human GPR61 (Homo sapiens, UniProt Q9BZJ8); experiment: Functional cAMP assay (HTRF), transiently transfected CHO-K1 cells, wild-type GPR61 (untagged and HiBit-tagged); assay type: cell-based; parameters: key to cAMP response (Figure 3e source data): nM cAMP per well, from standard curve
# T2 construct: expressed in transfected cells; host or cells: CHO-K1, transient (Fugene6)
# T2 sequence (Q9BZJ8 whole entry): as the sequence (Q9BZJ8 whole entry V288A) above, with A288V counted along it
# Excerpt: as §1, §2
# A homogeneous Time-Resolved Fluorescence (HTRF) assay (Perkin Elmer, Dynamic2 kit #) was used to assess receptor basal and inverse agonist activity at human GPR61, GPR62, and GPR101. For routine inverse agonist screening frozen CHO TREx human GPR61, GPR62 and GPR101 cells were used. Cells were thawed, resuspended in complete assay media (DMEM F-12, 10% HI FBS, 100 μg/mL Normocin, 700 μg/mL Hygromycin B and 15 μg/mL Blasticidin) containing 1ug/ml doxycycline, plated in white 384 well plates (Corning, 3570) at a density of 750 cells/well (25 μl/ well) and cultured at 37 °C in an incubator overnight. For studies assessing basal and inverse agonist activity at human GPR61 mutants, CHO-K1 cells were transiently transfected using Fugene6, plated in white 384 well plates (7500 cells/well) and grown overnight at 37 °C, as described for receptor expression studies. […]
# Human PDE11A4 = Human PDE11A4 (Homo sapiens, UniProt Q9HCR9); experiment: Phosphodiesterase Assay (SPA); assay type: biochemical
# Human PDE11A4, sequence (Q9HCR9 whole entry): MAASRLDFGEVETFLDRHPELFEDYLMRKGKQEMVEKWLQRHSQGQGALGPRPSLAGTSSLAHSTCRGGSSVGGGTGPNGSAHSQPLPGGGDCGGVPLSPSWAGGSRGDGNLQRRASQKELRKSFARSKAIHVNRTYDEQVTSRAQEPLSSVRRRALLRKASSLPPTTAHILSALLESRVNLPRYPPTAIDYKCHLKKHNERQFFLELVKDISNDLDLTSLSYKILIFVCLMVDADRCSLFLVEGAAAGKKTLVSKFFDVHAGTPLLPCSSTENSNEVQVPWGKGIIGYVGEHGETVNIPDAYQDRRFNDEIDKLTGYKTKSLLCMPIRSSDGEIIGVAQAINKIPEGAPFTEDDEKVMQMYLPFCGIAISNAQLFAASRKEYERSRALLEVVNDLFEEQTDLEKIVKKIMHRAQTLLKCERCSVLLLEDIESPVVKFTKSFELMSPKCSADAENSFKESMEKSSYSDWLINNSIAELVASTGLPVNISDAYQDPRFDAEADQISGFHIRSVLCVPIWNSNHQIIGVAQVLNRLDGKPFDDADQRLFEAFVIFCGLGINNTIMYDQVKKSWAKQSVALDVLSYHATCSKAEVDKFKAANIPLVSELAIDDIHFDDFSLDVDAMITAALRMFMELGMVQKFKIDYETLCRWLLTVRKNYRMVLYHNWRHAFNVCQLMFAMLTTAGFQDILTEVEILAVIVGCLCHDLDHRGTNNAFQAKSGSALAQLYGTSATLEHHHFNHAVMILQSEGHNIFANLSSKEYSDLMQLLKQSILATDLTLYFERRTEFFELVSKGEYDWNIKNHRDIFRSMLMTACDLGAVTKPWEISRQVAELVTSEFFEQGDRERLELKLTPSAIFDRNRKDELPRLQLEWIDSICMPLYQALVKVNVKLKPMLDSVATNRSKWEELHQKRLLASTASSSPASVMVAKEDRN
# human GPR61 N345A = molecular target: T3, human GPR61 N345A (Homo sapiens, UniProt Q9BZJ8, N345A); experiment: Functional cAMP assay (HTRF), transiently transfected CHO-K1 cells, GPR61 N345A mutant; assay type: cell-based; details: at up to 10 μM concentration
# T3 construct: expressed in transfected cells; host or cells: CHO-K1, transient (Fugene6)
# T3 sequence (Q9BZJ8 whole entry N345A): as the sequence (Q9BZJ8 whole entry V288A) above, with A288V, N345A counted along it
# Excerpt: as §1, with “Four single amino acid substitutions (N137A, R140A, V288A, N345A) were then introduced in the untagged and tagged human GPR61 constructs using site-specific mutagenesis. The nucleotide sequences of all receptor constructs were confirmed by automated DNA sequencing.” left out
# Parental CHO-K1 cells were maintained at 37 °C in a humidified environment (5% CO2) and grown in Dulbecco’s Modified Eagle Medium (DMEM) F-12 media (Gibco, 11320033) supplemented with 10% FBS, 1% Glutamax (Gibco, 35050061) and 100units/ml penicillin and streptomycin (Gibco, 15140122. Cells were dissociated using a cell dissociation solution (Gibco, 13151-014), counted, and resuspended in complete culture media without antibiotics. Cells were then transiently transfected using Fugene6 (Promega) in a 384-well plate format (Corning, 3570). For each well, 7500 cells were transfected with 5 ng of receptor plasmid, 20 ng of carrier DNA (Promega, PAE4881) and 0.075 μl Fugene6 in a final volume of 25 μl. […]
compound,measurement,setting,value
CCOc1cc(C)nc(N(CCOC)S(=O)(=O)c2ccc(NCc3c(F)cncc3F)nc2OC)n1 [Compound 1],IC50,"human GPR61 V288A; HiBit-tagged, read-out: GPR61 cAMP IC50 (95% CI), V288A HiBit-tagged",400 nM
same,IC50,"human GPR61 V288A; untagged, read-out: GPR61 cAMP IC50 (95% CI), V288A Untagged",406 nM
same,cAMP response (Figure 3e source data),"human GPR61 V288A; HiBit V288A, concentration -6",0.67 and 0.63 and 0.87 and 1.10 and 0.64 and 0.60
same,sensitivity of the receptor to inverse agonism in the cAMP assay,human GPR61 V288A; V288A mutant vs wild-type,less sensitive
same,IC50,"human GPR61; Fig. 2d, HiBit-tagged WT, read-out: IC50, cAMP assay, Hibit-tagged GPR61",10 nM
same,IC50,"human GPR61; Fig. 2d, untagged WT, read-out: IC50, cAMP assay, Untagged GPR61",11 nM
same,cAMP response (Figure 3e source data),"human GPR61; HiBit WT, concentration -7.5",1.38 and 1.77 and 1.31 and 1.26 and 1.43 and 2.44
same,cAMP response (Figure 3e source data),"human GPR61; HiBit WT, concentration -8",2.14 and 2.36 and 1.86 and 2.11 and 3.43
same,cAMP response (Figure 3e source data),"human GPR61; HiBit WT, concentration -10",3.60 and 4.23 and 3.00 and 3.19 and 3.38 and 5.40
same,cAMP response (Figure 3e source data),"human GPR61; Untagged WT, concentration -8.5",3.48 and 4.28 and 2.15 and 2.16 and 4.06 and 4.02
same,cAMP response (Figure 3e source data),"human GPR61; Untagged WT, concentration -9",4.53 and 5.41 and 3.02 and 3.13 and 5.81 and 5.80
same,IC50,"human GPR61; wild-type GPR61, untagged and HiBit-tagged, read-out: IC50 in the functional cAMP assay",10 to 11 nM
same,IC50,Human PDE11A4,> 40000 nM
same,sensitivity of the receptor to the compound in the cAMP assay,human GPR61 N345A,no sensitivity
